The values that follow come from patent US8362017B2, “C-kit modulators and methods of use” (Exelixis, Inc., priority 2003, dated 2013).

The experiment has as its target c-Kit kinase (Homo sapiens, UniProt P10721). Put plainly: c-Kit biochemical activity assay (AlphaScreen). To be noted: biotinylated poly(Glu, Tyr) substrate, 1 hr at ambient temperature. On the procedure:
Kinase activity and compound inhibition are investigated using one or more of the three assay formats described below. The ATP concentrations for each assay are selected to be close to the Michaelis-Menten constant (KM) for each individual kinase. Dose-response experiments are performed at 10 different inhibitor concentrations in a 384-well plate format. The data are fitted to four-parameter equation (2) below; where Y is the observed signal, X is the inhibitor concentration, Min is the background signal in the absence of enzyme (0% enzyme activity), Max is the signal in the absence of inhibitor (100% enzyme activity), IC50 is the inhibitor concentration at 50% enzyme inhibition and H represents the empirical Hill's slope to measure the cooperativity. Typically H is close to unity. Y=Min+(Max−Min)/(1+(X/IC50)^H) Equation (2) c-Kit Assay
c-Kit biochemical activity was assessed using AlphaScreen™ (Perldn Elmer) technology, described above. Test compounds, ATP, biotinylated poly(Glu, Tyr) and c-Kit kinase were combined in a volume of 20 μL in a 384-well white, medium binding microtiter plate (Greiner). Reaction mixtures were incubated for 1 hr at ambient temperature. Reactions were quenched by addition of 10 μL of 15-30 mg/mL AlphaScreen bead suspension containing 75 mM Hepes, pH 7.4, 300 mM NaCl, 120 mM EDTA, 0.3% BSA and 0.03% Tween-20. After 16 hr incubation at ambient temperature plates were read using an AlphaQuest reader (Perkin Elmer).

c-Kit kinase, sequence (P10721 26-976): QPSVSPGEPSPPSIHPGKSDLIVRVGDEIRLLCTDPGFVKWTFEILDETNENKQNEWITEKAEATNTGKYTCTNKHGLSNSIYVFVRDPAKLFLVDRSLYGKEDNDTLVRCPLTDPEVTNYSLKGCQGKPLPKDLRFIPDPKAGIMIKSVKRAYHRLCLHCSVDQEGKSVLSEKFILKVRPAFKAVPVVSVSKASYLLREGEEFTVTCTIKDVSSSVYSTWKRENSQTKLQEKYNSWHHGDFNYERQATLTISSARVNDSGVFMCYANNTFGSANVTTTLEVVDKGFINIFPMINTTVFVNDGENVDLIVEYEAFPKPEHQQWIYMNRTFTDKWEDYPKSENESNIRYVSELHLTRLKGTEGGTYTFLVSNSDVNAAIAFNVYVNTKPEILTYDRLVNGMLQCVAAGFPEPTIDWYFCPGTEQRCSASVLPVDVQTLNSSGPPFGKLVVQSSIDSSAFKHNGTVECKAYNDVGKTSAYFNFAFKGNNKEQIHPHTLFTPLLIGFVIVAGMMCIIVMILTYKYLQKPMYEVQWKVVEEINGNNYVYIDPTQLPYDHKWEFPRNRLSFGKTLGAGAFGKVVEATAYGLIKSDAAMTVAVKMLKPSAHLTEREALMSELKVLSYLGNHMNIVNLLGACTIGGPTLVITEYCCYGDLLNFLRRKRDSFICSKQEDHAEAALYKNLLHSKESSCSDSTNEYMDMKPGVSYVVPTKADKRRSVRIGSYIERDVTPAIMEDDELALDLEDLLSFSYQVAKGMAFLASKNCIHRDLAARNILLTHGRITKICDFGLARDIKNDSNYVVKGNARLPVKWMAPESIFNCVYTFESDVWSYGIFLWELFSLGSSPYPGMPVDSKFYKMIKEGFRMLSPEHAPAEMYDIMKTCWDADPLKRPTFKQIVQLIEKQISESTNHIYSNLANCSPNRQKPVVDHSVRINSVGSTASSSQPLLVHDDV

Usually IC50 stands for the concentration needed to halve the response being measured. Lower therefore signals higher potency. In turn, `Cc1nnnn1-c1cccc(OCC(=O)Nc2ccc(Cl)c(C(F)(F)F)c2)c1` [Example 5, N-[4-chloro-3-(trifluoromethyl)phenyl]-2-{[3-(5-methyl-1H-tetrazol-1-yl)phenyl]oxy}acetamide] registered an IC50 of 0.5 to 5 µM.
To `O=C(COc1ccc(-c2cncnc2)cc1)Nc1ccc(Cl)c(C(F)(F)F)c1` [Example 7, N-[4-chloro-3-(trifluoromethyl)phenyl]-2-[(4-pyrimidin-5-ylphenyl)oxy]acetamide] belongs 0.05 to 0.5 µM; to `O=C(NCc1cccc(-c2ccc3nccnc3c2)c1)Nc1ccc(Cl)c(C(F)(F)F)c1` [Example 11, 1-(4-Chloro-3-trifluoromethyl-phenyl)-3-(3-quinoxalin-6-yl-benzyl)urea], 0.05 to 0.5 µM; to `O=C(NC(=O)c1cccc(-n2cnnn2)c1)Nc1ccc(Cl)c(C(F)(F)F)c1` [Example 13, 1-(4-chloro-3-trifluoromethyl-phenyl)-3-(3-tetrazol-1-yl-benzoyl)-urea], 0.5 to 5 µM.
Regarding `Cc1ccc(-n2cnnn2)cc1OCC(=O)Nc1ccc(Cl)c(C(F)(F)F)c1` [Example 18, N-[4-chloro-3-(trifluoromethyl)phenyl]-2-{[2-methyl-5-(1H-tetrazol-1-yl)phenyl]oxy}acetamide], the IC50 was > 5 µM.
For `COC(=O)c1cn(-c2cccc(OCC(=O)Nc3ccc(Cl)c(C(F)(F)F)c3)c2)nn1` [Example 29, methyl 1-{3-[(2-{[4-chloro-3-(trifluoromethyl)phenyl]amino}-2-oxoethyl)oxy]phenyl}-1H-1,2,3-triazole-4-carboxylate] the value was 0.5 to 5 µM; for `COc1ccc(Cl)cc1NC(=O)OCc1cccc(-c2cccnc2)c1` [Example 234, (3-pyridin-3-ylphenyl)methyl [5-chloro-2-(methyloxy)phenyl]carbamate], 0.5 to 5 µM.
For `O=C(Nc1ccc(Cl)c(C(F)(F)F)c1)OCc1ccc(-n2cnnn2)cc1` [Example 235, [4-(1H-tetrazol-1-yl)phenyl]methyl [4-chloro-3-(trifluoromethyl)phenyl]carbamate] the value was 0.5 to 5 µM; for `COc1ccc(Cl)cc1NC(=O)OCc1cccc(-c2cncnc2)c1` [Example 236, (3-pyrimidin-5-ylphenyl)methyl [5-chloro-2-(methyloxy)phenyl]carbamate], 0.5 to 5 µM.
For `Cc1ccc(NC(=O)OCc2ccc(-c3cncnc3)cc2)cc1C` [Example 237, (4-pyrimidin-5-ylphenyl)methyl (3,4-dimethylphenyl)carbamate] the value was 0.5 to 5 µM; for `Cc1ccc(NC(=O)OCc2cccc(-c3cccnc3)c2)cc1C` [Example 238, (3-pyridin-3-ylphenyl)methyl (3,4-dimethylphenyl)carbamate], 0.05 to 0.5 µM.
In the case of `CC(C)(C)OC(=O)N1CCCC(NC(=O)c2nc(-c3cccc(CNC(=O)Nc4ccc(Cl)c(C(F)(F)F)c4)c3)cnc2N)C1` (centres unmarked) [Example 239, 1,1-dimethylethyl 3-({[3-amino-6-(3-{[({[4-chloro-3-(trifluoromethyl)phenyl]amino}carbonyl)amino]methyl}phenyl)pyrazin-2-yl]carbonyl}amino)piperidine-1-carboxylate], the half-inhibitory concentration (IC50) was in the range of 0.5 to 5 µM.
Compound `CC(C)(C)OC(=O)N1CCCC(NC(=O)c2nc(-c3ccc(CNC(=O)Nc4ccc(Cl)c(C(F)(F)F)c4)cc3)cnc2N)C1` (centres unmarked) [Example 240, 1,1-dimethylethyl 3-({[3-amino-6-(4-{[({[4-chloro-3-(trifluoromethyl)phenyl]amino}carbonyl)amino]methyl}phenyl)pyrazin-2-yl]carbonyl}amino)piperidine-1-carboxylate] came in with an IC50 of 0.5 to 5 µM.
For `Nc1ncc(-c2cccc(CNC(=O)Nc3ccc(Cl)c(C(F)(F)F)c3)c2)nc1C(=O)NC1CCCNC1` (centres unmarked) [Example 241, 3-amino-6-(3-{[({[4-chloro-3-(trifluoromethyl)phenyl]amino}carbonyl)amino]methyl}phenyl)-N-piperidin-3-ylpyrazine-2-carboxamide] the value was 0.05 to 0.5 µM.
In turn, `Nc1ncc(-c2ccc(CNC(=O)Nc3ccc(Cl)c(C(F)(F)F)c3)cc2)nc1C(=O)NC1CCCNC1` (centres unmarked) [Example 242, 3-amino-6-(4-{[({[4-chloro-3-(trifluoromethyl)phenyl]amino}carbonyl)amino]methyl}phenyl)-N-piperidin-3-ylpyrazine-2-carboxamide] registered a half-inhibitory concentration (IC50) of 0.05 to 0.5 µM.
`CC(C)(C)OC(=O)N1CCN(C(=O)c2nc(-c3cccc(CNC(=O)Nc4ccc(Cl)c(C(F)(F)F)c4)c3)cnc2N)CC1` [Example 243, 1,1-dimethylethyl 4-{[3-amino-6-(3-{[({[4-chloro-3-(trifluoromethyl)phenyl]amino}carbonyl)amino]methyl}phenyl)pyrazin-2-yl]carbonyl}piperazine-1-carboxylate] yielded an IC50 of 0.5 to 5 µM.
For the compound `CC(C)(C)OC(=O)N1CCN(C(=O)c2nc(-c3ccc(CNC(=O)Nc4ccc(Cl)c(C(F)(F)F)c4)cc3)cnc2N)CC1` [Example 244, 1,1-dimethylethyl 4-{[3-amino-6-(4-{[({[4-chloro-3-(trifluoromethyl)phenyl]amino}carbonyl)amino]methyl}phenyl)pyrazin-2-yl]carbonyl}piperazine-1-carboxylate], the half-maximal inhibitory concentration (IC50) is 0.5 to 5 µM.
On to `Nc1ncc(-c2cccc(CNC(=O)Nc3ccc(Cl)c(C(F)(F)F)c3)c2)nc1C(=O)N1CCNCC1` [Example 245, N-({3-[5-amino-6-(piperazin-1-ylcarbonyl)pyrazin-2-yl]phenyl}methyl)-N′-[4-chloro-3-(trifluoromethyl)phenyl]urea], for which the IC50 was in the range of 0.5 to 5 µM.
For `Nc1ncc(-c2ccc(CNC(=O)Nc3ccc(Cl)c(C(F)(F)F)c3)cc2)nc1C(=O)N1CCNCC1` [Example 246, N-({4-[5-amino-6-(piperazin-1-ylcarbonyl)pyrazin-2-yl]phenyl}methyl)-N′-[4-chloro-3-(trifluoromethyl)phenyl]urea] the value was 0.5 to 5 µM; for `O=C(NCc1cccc(-c2cn[nH]c2)c1)Nc1ccc(Cl)c(C(F)(F)F)c1` [Example 247, N-[4-chloro-3-(trifluoromethyl)phenyl]-N′-{[3-(1H-pyrazol-4-yl)phenyl]methyl}urea], 0.05 to 0.5 µM.
The compound `O=C(NCc1ccc(-c2cn[nH]c2)cc1)Nc1ccc(Cl)c(C(F)(F)F)c1` [Example 248, N-[4-chloro-3-(trifluoromethyl)phenyl]-N′-{[4-(1H-pyrazol-4-yl)phenyl]methyl}urea] displayed an IC50 of 0.5 to 5 µM.
On to `O=C(Nc1ccc(Cl)c(C(F)(F)F)c1)OCc1cccc(-c2cnc(N3CCNCC3)nc2)c1` [Example 249, [3-(2-piperazin-1-ylpyrimidin-5-yl)phenyl]methyl [4-chloro-3-(trifluoromethyl)phenyl]carbamate], for which the IC50 is 0.5 to 5 µM.
For `O=C(Nc1ccc(Cl)c(C(F)(F)F)c1)OCc1ccc(-c2cnc(N3CCNCC3)nc2)cc1` [Example 250, [4-(2-piperazin-1-ylpyrimidin-5-yl)phenyl]methyl [4-chloro-3-(trifluoromethyl)phenyl]carbamate] the value was 0.5 to 5 µM; for `O=C(NCc1cccc(-c2cccnc2Cl)c1)Nc1ccc(Cl)c(C(F)(F)F)c1` [Example 251, N-{[3-(2-chloropyridin-3-yl)phenyl]methyl}-N′-[4-chloro-3-(trifluoromethyl)phenyl]urea], 0.05 to 0.5 µM.
For `O=C(NCc1ccc(-c2cccnc2Cl)cc1)Nc1ccc(Cl)c(C(F)(F)F)c1` [Example 252, N-{[4-(2-chloropyridin-3-yl)phenyl]methyl}-N′-[4-chloro-3-(trifluoromethyl)phenyl]urea] the value was 0.5 to 5 µM; for `O=C(NCc1cccc(-c2cccnc2F)c1)Nc1ccc(Cl)c(C(F)(F)F)c1` [Example 253, N-[4-chloro-3-(trifluoromethyl)phenyl]-N′-{[3-(2-fluoropyridin-3-yl)phenyl]methyl}urea], 0.5 to 5 µM.
For `O=C(NCc1ccc(-c2cccnc2F)cc1)Nc1ccc(Cl)c(C(F)(F)F)c1` [Example 254, N-[4-chloro-3-(trifluoromethyl)phenyl]-N′-{[4-(2-fluoropyridin-3-yl)phenyl]methyl}urea] the value was 0.5 to 5 µM.
Compound `O=C(Nc1cccc(C(F)(F)F)c1)OCc1cccc(-n2cnnn2)c1` [Example 255, [3-(1H-tetrazol-1-yl)phenyl]methyl [3-(trifluoromethyl)phenyl]carbamate] showed an IC50 of 0.05 to 0.5 µM.
To `O=C(Nc1cccc(C(F)(F)F)n1)OCc1cccc(-n2cnnn2)c1` [Example 256, [3-(1H-tetrazol-1-yl)phenyl]methyl [6-(trifluoromethyl)pyridin-2-yl]carbamate] belongs 0.5 to 5 µM; to `O=C(Nc1cc(C(F)(F)F)ccn1)OCc1cccc(-n2cnnn2)c1` [Example 257, [3-(1H-tetrazol-1-yl)phenyl]methyl [4-(trifluoromethyl)pyridin-2-yl]carbamate], 0.05 to 0.5 µM; to `CSc1ccc(-c2cccc(CNC(=O)Nc3ccc(Cl)c(C(F)(F)F)c3)c2)nc1` [Example 258, N-[4-chloro-3-(trifluoromethyl)phenyl]-N′-({3-[5-(methylthio)pyridin-2-yl]phenyl}methyl)urea], 0.5 to 5 µM.
For `Cc1ccc(-c2cccc(COC(=O)Nc3ccc(Cl)c(C(F)(F)F)c3)c2)c(C)n1` [Example 259, [3-(2,6-dimethylpyridin-3-yl)phenyl]methyl [4-chloro-3-(trifluoromethyl)phenyl]carbamate] the value was 0.5 to 5 µM.
